Source: US8637550B2, “Heteroaryl diamide compounds useful as MMP-13 inhibitors” (Boehringer Ingelheim International GmbH, priority 2008, dated 2014)

These compounds were tested against MMP-13 (Homo sapiens, UniProt P45452) (assay: EnzoLyte 520 Generic MMP Assay Kit, 5-FAM/QXL520 FRET peptide substrate).
Assay type: biochemical
Source text: The EnzoLyte™ 520 Generic MMP Assay Kit (AnaSpec Inc.) can detect the activity of several MMPs including MMP-1, 2, 3, 7, 8, 9, 13, and 14. This kit uses a 5-FAM/QXL™520 fluorescence resonance energy transfer (FRET) peptide as an MMP substrate.

`CNC(=O)[C@@H](NC(=O)c1ccc(-c2cccc(CNC(=O)c3ccnn3C)c2)o1)C1CCCCC1` [N-[3-(5-{[(1S)-1-cyclohexyl-2-(methylamino)-2-oxoethyl]carbamoyl}furan-2-yl)benzyl]-1-methyl-1H-pyrazole-5-carboxamide] was tested. Which IC50 did it give?
Its IC50 is 143 nM.

With `CNC(=O)[C@@H](NC(=O)c1ccc(-c2cccc(CNC(=O)c3ccnc(C(F)(F)F)n3)c2)o1)C1CCCCC1` [N-[3-(5-{[(1S)-1-cyclohexyl-2-(methylamino)-2-oxoethyl]carbamoyl}furan-2-yl)benzyl]-2-(trifluoromethyl)pyrimidine-4-carboxamide] as the compound, how does the IC50 read?
The IC50 was 7 nM.

For `CNC(=O)[C@@H](NC(=O)c1ccc(-c2cccc(CNC(=O)c3cc(C)n[nH]3)c2)o1)C1CCCCC1` [N-[3-(5-{[(1S)-1-cyclohexyl-2-(methylamino)-2-oxoethyl]carbamoyl}furan-2-yl)benzyl]-3-methyl-1H-pyrazole-5-carboxamide], which IC50 is on record?
The IC50 was 123 nM.

With `CNC(=O)[C@@H](NC(=O)c1ccc(-c2cccc(CNC(=O)c3occc3C)c2)o1)C1CCCCC1` [N-[3-(5-{[(1S)-1-cyclohexyl-2-(methylamino)-2-oxoethyl]carbamoyl}furan-2-yl)benzyl]-3-methylfuran-2-carboxamide] as the compound, how does the IC50 read?
Its IC50 is 180 nM.

Which IC50 does the source give for `CNC(=O)[C@@H](NC(=O)c1ccc(-c2cccc(CNC(=O)c3ncccc3C)c2)o1)C1CCCCC1` [N-[3-(5-{[(1S)-1-cyclohexyl-2-(methylamino)-2-oxoethyl]carbamoyl}furan-2-yl)benzyl]-3-methylpyridine-2-carboxamide] here?
The IC50 was 103 nM.

`CCc1ccnc(C(=O)NCc2cccc(-c3ccc(C(=O)N[C@H](C(=O)NC)C4CCCCC4)o3)c2)c1` [N-[3-(5-{[(1S)-1-cyclohexyl-2-(methylamino)-2-oxoethyl]carbamoyl}furan-2-yl)benzyl]-4-ethylpyridine-2-carboxamide] was tested. Which IC50 did it give?
The IC50 was 38 nM.

For `CNC(=O)[C@@H](NC(=O)c1ccc(-c2cccc(CNC(=O)c3cn4c(C)cccc4n3)c2)o1)C1CCCCC1` [N-[3-(5-{[(1S)-1-cyclohexyl-2-(methylamino)-2-oxoethyl]carbamoyl}furan-2-yl)benzyl]-5-methylimidazo[1,2-a]pyridine-2-carboxamide], which IC50 is on record?
Its IC50 is 110 nM.

For `CNC(=O)[C@@H](NC(=O)c1ccc(-c2cccc(CNC(=O)c3cncc(C)c3)c2)o1)C1CCCCC1` [N-[3-(5-{[(1S)-1-cyclohexyl-2-(methylamino)-2-oxoethyl]carbamoyl}furan-2-yl)benzyl]-5-methylpyridine-3-carboxamide], which IC50 is on record?
The IC50 was 30 nM.

`CNC(=O)[C@@H](NC(=O)c1ccc(-c2cccc(CNC(=O)c3cn4ccc(C)cc4n3)c2)o1)C1CCCCC1` [N-[3-(5-{[(1S)-1-cyclohexyl-2-(methylamino)-2-oxoethyl]carbamoyl}furan-2-yl)benzyl]-7-methylimidazo[1,2-a]pyridine-2-carboxamide] was tested. Which IC50 did it give?
The IC50 was 137 nM.

For `CNC(=O)[C@@H](NC(=O)c1ccc(-c2cccc(CNC(=O)c3ccccn3)c2)o1)C1CCCCC1` [N-[3-(5-{[(1S)-1-cyclohexyl-2-(methylamino)-2-oxoethyl]carbamoyl}furan-2-yl)benzyl]pyridine-2-carboxamide], which IC50 is on record?
The IC50 was 9 nM.

For `CNC(=O)[C@@H](NC(=O)c1ccc(-c2cccc(CNC(=O)c3ccnc(C(F)(F)F)n3)c2)o1)C1CCOCC1` [N-[3-(5-{[(1S)-2-(methylamino)-2-oxo-1-(tetrahydro-2H-pyran-4-yl)ethyl]carbamoyl}-2-furyl)benzyl]-2-(trifluoromethyl)pyrimidine-4-carboxamide], which IC50 is on record?
Its IC50 is 2 nM.

For `CNC(=O)[C@@H](NC(=O)c1ccc(-c2cccc(CNC(=O)c3cccc(C(F)(F)F)n3)c2)o1)C1CCOCC1` [N-[3-(5-{[(1S)-2-(methylamino)-2-oxo-1-(tetrahydro-2H-pyran-4-yl)ethyl]carbamoyl}-2-furyl)benzyl]-6-(trifluoromethyl)pyridine-2-carboxamide], which IC50 is on record?
The IC50 was 2 nM.

Which IC50 does the source give for `CNC(=O)[C@@H](NC(=O)c1ccc(-c2cccc(CNC(=O)C3CCCN3)c2)o1)C(C)C` (stereo partly drawn) [N-[3-(5-{[(1S)-2-methyl-1-(methylcarbamoy)propyl]carbamoyl}-2-furyl)benzyl]prolinamide] here?
The IC50 was 305 nM.

How did the IC50 turn out when `CNC(=O)[C@@H](NC(=O)c1ccc(-c2cccc(CNC(=O)c3cc4ccccc4o3)c2)o1)C(C)C` [N-[3-(5-{[(1S)-2-methyl-1-(methylcarbamoyl)propyl]carbamoyl}-2-furyl)benzyl]-1-benzofuran-2-carboxamide] was run?
Its IC50 is 8 nM.

How did the IC50 turn out when `CNC(=O)[C@@H](NC(=O)c1ccc(-c2cccc(CNC(=O)c3nc4ccccc4[nH]3)c2)o1)C(C)C` [N-[3-(5-{[(1S)-2-methyl-1-(methylcarbamoyl)propyl]carbamoyl}-2-furyl)benzyl]-1H-benzimidazole-2-carboxamide] was run?
The IC50 was 33 nM.

For `CNC(=O)[C@@H](NC(=O)c1ccc(-c2cccc(CNC(=O)C3CNCCO3)c2)o1)C(C)C` (stereo partly drawn) [N-[3-(5-{[(1S)-2-methyl-1-(methylcarbamoyl)propyl]carbamoyl}-2-furyl)benzyl]morpholine-2-carboxamide], which IC50 is on record?
Its IC50 is 370 nM.

How did the IC50 turn out when `CNC(=O)[C@@H](NC(=O)c1ccc(-c2cccc(CNC(=O)c3cccnc3)c2)o1)C(C)C` [N-[3-(5-{[(1S)-2-methyl-1-(methylcarbamoyl)propyl]carbamoyl}-2-furyl)benzyl]nicotinamide] was run?
Its IC50 is 355 nM.

`CNC(=O)[C@@H](NC(=O)c1ccc(-c2cccc(CNC(=O)C3CCCCN3)c2)o1)C(C)C` (stereo partly drawn) [N-[3-(5-{[(1S)-2-methyl-1-(methylcarbamoyl)propyl]carbamoyl}-2-furyl)benzyl]piperidine-2-carboxamide] was tested. Which IC50 did it give?
Its IC50 is 270 nM.

For `CNC(=O)[C@@H](NC(=O)c1ccc(-c2cccc(CNC(=O)C3CCCNC3)c2)o1)C(C)C` (stereo partly drawn) [N-[3-(5-{[(1S)-2-methyl-1-(methylcarbamoyl)propyl]carbamoyl}-2-furyl)benzyl]piperidine-3-carboxamide], which IC50 is on record?
The IC50 was 430 nM.

With `CNC(=O)[C@@H](NC(=O)c1ccc(-c2cccc(CNC(=O)c3cnccn3)c2)o1)C(C)C` [N-[3-(5-{[(1S)-2-methyl-1-(methylcarbamoyl)propyl]carbamoyl}-2-furyl)benzyl]pyrazine-2-carboxamide] as the compound, how does the IC50 read?
The IC50 was 32 nM.

With `CNC(=O)[C@@H](NC(=O)c1ccc(-c2cccc(CNC(=O)c3cccnn3)c2)o1)C(C)C` [N-[3-(5-{[(1S)-2-methyl-1-(methylcarbamoyl)propyl]carbamoyl}-2-furyl)benzyl]pyridazine-3-carboxamide] as the compound, how does the IC50 read?
Its IC50 is 420 nM.

`CNC(=O)[C@@H](NC(=O)c1ccc(-c2cccc(CNC(=O)c3ccnnc3)c2)o1)C(C)C` [N-[3-(5-{[(1S)-2-methyl-1-(methylcarbamoyl)propyl]carbamoyl}-2-furyl)benzyl]pyridazine-4-carboxamide] was tested. Which IC50 did it give?
The IC50 was 180 nM.

With `CNC(=O)[C@@H](NC(=O)c1ccc(-c2cccc(CNC(=O)C3CCCCO3)c2)o1)C(C)C` (stereo partly drawn) [N-[3-(5-{[(1S)-2-methyl-1-(methylcarbamoyl)propyl]carbamoyl}-2-furyl)benzyl]tetrahydro-2H-pyran-2-carboxamide] as the compound, how does the IC50 read?
The IC50 was 101 nM.

`CNC(=O)[C@@H](NC(=O)c1ccc(-c2cccc(CNC(=O)C3CCOCC3)c2)o1)C(C)C` [N-[3-(5-{[(1S)-2-methyl-1-(methylcarbamoyl)propyl]carbamoyl}-2-furyl)benzyl]tetrahydro-2H-pyran-4-carboxamide] was tested. Which IC50 did it give?
Its IC50 is 337 nM.

`CNC(=O)[C@@H](NC(=O)c1ccc(-c2ccc(NC(=O)c3cc4ccccc4o3)cc2)o1)C1CCCCC1` [N-[4-(5-{[(1S)-1-cyclohexyl-2-(methylamino)-2-oxoethyl]carbamoyl}furan-2-yl)phenyl]-1-benzofuran-2-carboxamide] was tested. Which IC50 did it give?
The IC50 was 496 nM.

`CNC(=O)[C@@H](NC(=O)c1ccc(-c2ccc(NC(=O)c3cn(C)cn3)cc2)o1)C1CCCCC1` [N-[4-(5-{[(1S)-1-cyclohexyl-2-(methylamino)-2-oxoethyl]carbamoyl}furan-2-yl)phenyl]-1-methyl-1H-imidazole-4-carboxamide] was tested. Which IC50 did it give?
Its IC50 is 140 nM.

For `CNC(=O)[C@@H](NC(=O)c1ccc(-c2ccc(NC(=O)c3ccn(C)n3)cc2)o1)C1CCCCC1` [N-[4-(5-{[(1S)-1-cyclohexyl-2-(methylamino)-2-oxoethyl]carbamoyl}furan-2-yl)phenyl]-1-methyl-1H-pyrazole-3-carboxamide], which IC50 is on record?
Its IC50 is 31 nM.

With `CNC(=O)[C@@H](NC(=O)c1ccc(-c2ccc(NC(=O)c3cnn(C)c3)cc2)o1)C1CCCCC1` [N-[4-(5-{[(1S)-1-cyclohexyl-2-(methylamino)-2-oxoethyl]carbamoyl}furan-2-yl)phenyl]-1-methyl-1H-pyrazole-4-carboxamide] as the compound, how does the IC50 read?
Its IC50 is 180 nM.

Which IC50 does the source give for `CNC(=O)[C@@H](NC(=O)c1ccc(-c2ccc(NC(=O)c3ccnn3C)cc2)o1)C1CCCCC1` [N-[4-(5-{[(1S)-1-cyclohexyl-2-(methylamino)-2-oxoethyl]carbamoyl}furan-2-yl)phenyl]-1-methyl-1H-pyrazole-5-carboxamide] here?
Its IC50 is 99 nM.

With `CNC(=O)[C@@H](NC(=O)c1ccc(-c2ccc(NC(=O)c3occc3C)cc2)o1)C1CCCCC1` [N-[4-(5-{[(1S)-1-cyclohexyl-2-(methylamino)-2-oxoethyl]carbamoyl}furan-2-yl)phenyl]-3-methylfuran-2-carboxamide] as the compound, how does the IC50 read?
Its IC50 is 93 nM.

`CNC(=O)[C@@H](NC(=O)c1ccc(-c2ccc(NC(=O)c3cc(C)c(C)o3)cc2)o1)C1CCCCC1` [N-[4-(5-{[(1S)-1-cyclohexyl-2-(methylamino)-2-oxoethyl]carbamoyl}furan-2-yl)phenyl]-4,5-dimethylfuran-2-carboxamide] was tested. Which IC50 did it give?
The IC50 was 63 nM.

How did the IC50 turn out when `CNC(=O)[C@@H](NC(=O)c1ccc(-c2ccc(NC(=O)c3cc(C)[nH]n3)cc2)o1)C1CCCCC1` [N-[4-(5-{[(1S)-1-cyclohexyl-2-(methylamino)-2-oxoethyl]carbamoyl}furan-2-yl)phenyl]-5-methyl-1H-pyrazole-3-carboxamide] was run?
Its IC50 is 87 nM.

`CNC(=O)[C@@H](NC(=O)c1ccc(-c2ccc(NC(=O)c3ccc(C)o3)cc2)o1)C1CCCCC1` [N-[4-(5-{[(1S)-1-cyclohexyl-2-(methylamino)-2-oxoethyl]carbamoyl}furan-2-yl)phenyl]-5-methylfuran-2-carboxamide] was tested. Which IC50 did it give?
Its IC50 is 57 nM.

With `CNC(=O)[C@@H](NC(=O)c1ccc(-c2ccc(NC(=O)c3cn4c(C)cccc4n3)cc2)o1)C1CCCCC1` [N-[4-(5-{[(1S)-1-cyclohexyl-2-(methylamino)-2-oxoethyl]carbamoyl}furan-2-yl)phenyl]-5-methylimidazo[1,2-a]pyridine-2-carboxamide] as the compound, how does the IC50 read?
The IC50 was 150 nM.
